Conditions: Liquid, Vibrating tube method

CCCCCCCCCCO [decan-1-ol]
mass density [kg/m3]
Conditions | 288.15 K | 298.15 K | 308.15 K | 318.15 K | 328.15 K | 338.15 K | 348.15 K | 358.15 K
100 kPa | 832.3 | 825.5 | 818.7 | 811.9 | 805 | 798 | 790.9 | 783.6
1000 kPa | 832.8 | 826 | 819.3 | 812.5 | 805.7 | 798.7 | 791.6 | 784.3
5000 kPa | 835.2 | 828.5 | 821.9 | 815.3 | 808.5 | 801.7 | 794.8 | 787.6
10000 kPa | 838 | 831.5 | 825 | 818.5 | 811.9 | 805.2 | 798.5 | 791.6
15000 kPa | 840.8 | 834.4 | 828 | 821.7 | 815.2 | 808.7 | 802 | 795.3
20000 kPa | 843.5 | 837.2 | 830.9 | 824.7 | 818.3 | 812 | 805.5 | 798.9
25000 kPa | 846.1 | 839.8 | 833.7 | 827.6 | 821.4 | 815.1 | 808.8 | 802.3
30000 kPa | 848.6 | 842.5 | 836.4 | 830.4 | 824.3 | 818.1 | 811.9 | 805.6
35000 kPa | 851.1 | 845.1 | 839.1 | 833.2 | 827.1 | 821.1 | 815 | 808.8
40000 kPa | 853.5 | 847.6 | 841.7 | 835.8 | 829.9 | 824 | 817.9 | 811.9
45000 kPa | 855.9 | 850 | 844.2 | 838.5 | 832.6 | 826.7 | 820.8 | 814.8
50000 kPa | 858.2 | 852.4 | 846.6 | 841 | 835.2 | 829.4 | 823.6 | 817.7
55000 kPa | 860.4 | 854.7 | 849 | 843.4 | 837.7 | 832.1 | 826.4 | 820.5
60000 kPa | 862.7 | 856.8 | 851.2 | 845.7 | 840.2 | 834.5 | 829 | 822.9

Reference: the NIST ThermoML archive (doi:10.1016/j.jct.2011.10.023)
